Consider 2 compounds from patent US20240325328A1, “TREATMENT OF BRAIN […] CNS […] ILLUDINS OR HYDROXYLUREAMETHYL ACYLFULVENE” (Lantern Pharma Inc., priority 2021, published 2024).

Data set [1] deals with blood brain barrier in vitro 3D model (co-cultured brain endothelial cells, pericytes and astrocytes). The data set can be described thus: Apparent BBB permeability in 3D in vitro blood brain barrier model. In kind it is in vitro ADME, human. To be noted: 3D BBB model, at 30 minutes. The source says: (§1) Hydroxy UreaMethyl Acylfulvene having a negative chirality or LP-184 permeates the blood brain barrier in vitro 3D model, which closely recapitulates the human blood brain barrier. This model mimics transport properties of the BBB due to the formation of tight junctions, higher expression of specific carriers, and/or great cell viability. This 3D in vitro model of the BBB created by co-culturing brain endothelial cells, with pericytes and astrocytes layered in an insert, improves endothelial cell polarization, and enhances the formation of tight junctions, provides better endothelial cell-to-cell contact that is important for barrier development, and prevents the dilution of secreted neurotrophic factors. These conditions collectively lead to the development of an in vitro model that mimics the BBB.
(§2) This assay leverages the novel 3D BBB model that allows studying both compound transport across the barrier as well as the effect of compounds on the structure and function of the BBB. […] LP-184 was as effective as the standard of care drug TMZ in penetrating the blood brain barrier. Apparent BBB permeability measured for TMZ was 1.72*10^−4 cm/s at 30 minutes and for LP-184 was 1.53*10^−4 cm/s at 30 minutes (FIG. 1).

For data set [2] the test system is unchanged. The data set can be described thus: Impact on cell viability and BBB integrity in 3D BBB model. To be noted: 3D BBB model, compound treatment. It counts as cell-based, human.
Description: as §1, §2

Data set [3] can be described thus: Pharmacokinetics of LP-184 in plasma, normal brain and brain tumor. In kind it is in vivo, mice.
The subject of data set [4] is 3D models of patient-derived xenograft (PDX) derived brain metastases of primary lung and breast cancers. The data set can be described thus: Potency in 3D models of PDX-derived brain metastases. It counts as cell-based. To be noted: 72-hour treatment period, various brain metastasis models, range over models and testing conditions.
The nature of data set [5]: Apparent BBB permeability in 3D in vitro blood brain barrier model. In kind it is in vitro ADME, human. Conditions: human, 3D BBB model.
Description: as §1, §2

[6] abbreviates: Contralateral Normal Brain, 4 mg/kg IV.
The mark [7] stands for this setting: Peritumoral Normal Brain, 4 mg/kg IV.

A word on the Tmax: it is the time at which the peak concentration occurs. One may read the clearance as the volume of plasma or blood freed of the substance per unit of time. Low readings indicate inefficient removal, high ones efficient removal. Broadly, the IC50 is the concentration that gives 50% inhibition. Regarding `CC1=C(CN(O)C(N)=O)C2=C(C)C3(CC3)[C@@](C)(O)C(=O)C2=C1` [LP-184, Hydroxy UreaMethyl Acylfulvene], the “Apparent BBB permeability” value in data set [1] is on record as 1.53*10^−4 cm/s. Besides, the BBB integrity entry in data set [2] is recorded as “BBB integrity was not compromised”. Also, in data set [2], the “Impact on cell viability” value is listed as “insignificant impact on cell viability”. Further, the “Brain Tissue/Plasma Ratio” value in data set [3] (Brain Tumor, 4 mg/kg IV) is given as 0.200; in data set [3] (setting [6]) it was 0.077; in data set [3] (setting [7]), 0.103. The Half-Life was determined as 16.9 min in data set [3] (Brain Tumor, 4 mg/kg IV); 26.6 min in data set [3] (setting [6]); 23 min in data set [3] (setting [7]); 14.2 min in data set [3] (Plasma, 4 mg/kg IV). Further, the Tmax was 5 min in data set [3] (Brain Tumor, 4 mg/kg IV); 15 min in data set [3] (setting [6]); 15 min in data set [3] (setting [7]); 5 min in data set [3] (Plasma, 4 mg/kg IV). For the same compound, the AUC0-t was 123 ± 15.9 ng·h/g in data set [3] (Contralateral Normal Brain, 4 mg/kg IV, Mean ± SEM); 165 ± 11.6 ng·h/g in data set [3] (Peritumoral Normal Brain, 4 mg/kg IV, Mean ± SEM); 1592 ± 48.7 ng·h/mL in data set [3] (Plasma, 4 mg/kg IV, Mean ± SEM). For the same compound, the Cmax in data set [3] (Plasma, 4 mg/kg IV, Mean ± SEM) is listed as 3438 ± 125^ ng/ml. Also, the “brain tumor exposure relative to plasma” value in data set [3] (based on AUC) is given as about 20%. Besides, the “brain tumor exposure compared to normal brain” value in data set [3] (higher in brain tumor) is recorded as about 2 fold. Moreover, the clearance in data set [3] (mice with tumors) stood at 39.82 mL/min/kg; in data set [3] (non-tumored mice), 88.07 mL/min/kg. The compound also came in with an IC50 in data set [4] of 88 to 4280 nM.

For orientation: Papp means a coefficient for how fast a substance crosses the barrier. As to `Cn1nnc2c(C(N)=O)ncn2c1=O` [TMZ, Temozolomide, reference compound], in data set [5], the Papp at 30 min was determined as 172 ×10⁻⁶ cm/s.
